Data from patent US20200239530A1, “COMPOUNDS AND METHODS OF MODULATING PROTEIN DEGRADATION” (Vividion Therapeutics, Inc., priority 2017, published 2020).
Like-named read-outs stand apart in the source and are kept apart here. Blank lines part the entries; values can stand above or below the molecule they belong to.

Columns and labels:
Format in all cases: binding
[1] = molecular target: T1, cysteine residue illustrated in Table 1A or Table 2A (Homo sapiens, UniProt A6NGE4); assay: Competitive cysteine profiling of cell lysate with desthiobiotin iodoacetamide probe (96-well sample prep); conditions: UniProt A6NGE4; 500 uM
T1 construct: Cells were resuspended in cold PBS on ice and sonicated with a probe sonicator to achieve lysis; endogenous in cells
Protocol: (§1) In some embodiments, the solution sample (e.g., cell sample, cell lysate sample, or comprising isolated proteins) is incubated with a compound of Formula (I) for analysis of protein-probe interactions. In some instances, the solution sample (e.g., cell sample, cell lysate sample, or comprising isolated proteins) is further incubated in the presence of an additional compound probe prior to addition of the compound of Formula (I). […] In such instances, the solution sample is incubated with a probe and a ligand for competitive protein profiling analysis.
(§2) The following 96-well sample prep protocol was used for sample preparation.
(§3) Cells were resuspended in cold PBS on ice and sonicated with a probe sonicator to achieve lysis. 200 μL of lysate containing 5 mg/ml proteome was treated with 2 μL of 100× compound stock in a 2-mL deep-well plate. The treated lysate was subsequently incubate at 25° C. for 1 hr with shaking at 600 rpm. The treated lysate was further incubated with 2 μL of 10 mM desthiobiotin iodoacetamide probe at 25° C. for 1 hr with shaking at 600 rpm. Next, the lysate was further treat with 20 μL of solution of PBS containing 11 mM MgSO4 and 2.5% Turbonuclease stock and incubated at 25° C. for 20 minutes with shaking at 600 rpm. 1.7 mL ice-cold acetone was added to each well and incubated at −20° C. for 2 hr, followed by max speed (4200 rpm) spin for 45 min. Acetone was then decanted and the plates were blotted to remove acetone. The plates were then dried in open air for 20 minutes. After drying, the plates were then covered with foil seal and stored at −80° C. overnight.
(§4) The next day, samples were re-suspended in 90 μL of solution of 9M urea, 50 mM ammonium bicarbonate and 10 mM DTT by incubating at 65C for 20 min with shaking at 1500 rpm. Next, samples were cooled to 37° C. and then 10 μL of 500 mM iodoacetamide solution (92.48 mg/ml) was added. The samples were then incubated at 37° C. for 30 min with shaking at 600 rpm.
(§5) ZEBA desalting plates were equilibrated 4 times using 250 μL of 2M urea, 50 mM ammonium bicarbonate solution followed by centrifugation at 1500 rpm for 2 minutes. After equilibration was complete, samples were applied to ZEBA desalting plate and spin at 1500 rpm for 2 min on top of 1 mL 96-well deep-well collection plate to buffer exchange samples. 4 μL of solution containing 25 mM CaCl2 and 0.25 mg/mL trypsin was added to the plate and the plate was then incubated at 37° C. for 2 hrs with shaking at 600 rpm. 300 μL of solution containing 5% high-capacity streptavidin agarose slurry in 25 mM Tris-HCl pH 7.5, 150 mM NaCl, and 0.1% NP-40 then added. The plate was incubated at 25° C. for 2 hrs with shaking at 600 rpm. Samples were transferred to 25 μm filter plate and spin at 1000 rpm for 2 min. Samples were then washed 3 times with 0.75 mL of wash buffer (25 mM Tris-HCl pH 7.5, 150 mM NaCl, and 0.1% NP-40) followed by washing 3 times with 0.75 mL PBS, and then 4 times with 0.75 mL water. After the washing step, samples were eluted into polypropylene 96-well plate by addition of 250 µL of 50% MeCN/water, 0.1% formic acid and allowed to gravity drip for 10 min, followed by centrifugation at 1000 rpm for 2 min. Speedvac was used to dry the plates at about 45° C. for […]. Then the plates were covered with foil seal and stored at −20° C.
(§6) Samples were resuspended by addition of 20 μl of 12.5% ACN, 0.1% formic acid solution, covered with foil seal, and incubated at 42° C. for 10 minutes with shaking at 600 rpm. Then add 30 μL of 0.1% formic acid solution was added and the plate was covered and incubated at 42° C. for 10 minutes with shaking at 600 rpm. Seal plate was then sealed with a 96-well silicon mat for analysis.

[2] = molecular target: T2, cysteine residue illustrated in Table 1A or Table 2A (Homo sapiens, UniProt P0C7V8); assay: as above; conditions: UniProt P0C7V8; 500 uM
T2 construct: Cells were resuspended in cold PBS on ice and sonicated with a probe sonicator to achieve lysis; endogenous in cells
Protocol: as §1, §2, §3, §4, §5, §6

[3] = molecular target: T3, cysteine residue illustrated in Table 1A or Table 2A (Homo sapiens, UniProt P40337); assay: as above; conditions: UniProt P40337
T3 construct: Cells were resuspended in cold PBS on ice and sonicated with a probe sonicator to achieve lysis; endogenous in cells
Protocol: as §1, §2, §3, §4, §5, §6

[4] = molecular target: T4, cysteine residue illustrated in Table 1A or Table 2A (Homo sapiens, UniProt Q9GZQ3); assay: as above; conditions: UniProt Q9GZQ3; 500 uM
T4 construct: Cells were resuspended in cold PBS on ice and sonicated with a probe sonicator to achieve lysis; endogenous in cells
Protocol: as §1, §2, §3, §4, §5, §6

Q5XKL5 = molecular target: T5, Q5XKL5 (Homo sapiens, UniProt Q5XKL5); assay: Competitive cysteine profiling, probe competition (Table 2B)
T5 construct: 200 μL of lysate containing 5 mg/ml proteome was treated with 2 μL of 100× compound stock; endogenous in cells
Description: as §2

Q96P09 = molecular target: T6, Q96P09 (Homo sapiens, UniProt Q96P09); assay: as above
T6 construct: 200 μL of lysate containing 5 mg/ml proteome was treated with 2 μL of 100× compound stock; endogenous in cells
T6 sequence (Q96P09 1-236): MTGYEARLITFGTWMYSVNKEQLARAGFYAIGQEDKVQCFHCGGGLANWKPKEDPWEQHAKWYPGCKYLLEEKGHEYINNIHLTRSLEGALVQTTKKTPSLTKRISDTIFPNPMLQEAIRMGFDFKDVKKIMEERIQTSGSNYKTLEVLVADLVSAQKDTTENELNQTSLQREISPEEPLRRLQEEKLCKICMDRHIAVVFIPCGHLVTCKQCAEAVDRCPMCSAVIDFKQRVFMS
Description: as §2

Q9H765 = molecular target: T7, Q9H765 (Homo sapiens, UniProt Q9H765); assay: as above
T7 construct: 200 μL of lysate containing 5 mg/ml proteome was treated with 2 μL of 100× compound stock; endogenous in cells
T7 sequence (Q9H765 1-288): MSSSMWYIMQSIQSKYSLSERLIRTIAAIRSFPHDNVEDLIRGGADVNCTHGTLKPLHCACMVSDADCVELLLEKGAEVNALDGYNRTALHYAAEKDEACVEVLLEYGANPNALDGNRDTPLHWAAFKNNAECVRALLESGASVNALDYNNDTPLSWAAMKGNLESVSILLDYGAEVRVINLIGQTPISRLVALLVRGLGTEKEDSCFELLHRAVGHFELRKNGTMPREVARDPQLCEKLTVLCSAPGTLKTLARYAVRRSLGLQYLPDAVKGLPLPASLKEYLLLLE
Description: as §2

Q9UJX5 = molecular target: T8, Q9UJX5 (Homo sapiens, UniProt Q9UJX5); assay: as above
T8 construct: Cells were resuspended in cold PBS on ice and sonicated with a probe sonicator to achieve lysis; endogenous in cells
Description: as §2

Q9UM13 = molecular target: T9, Q9UM13 (Homo sapiens, UniProt Q9UM13); assay: as above
T9 construct: Cells were resuspended in cold PBS on ice and sonicated with a probe sonicator to achieve lysis; endogenous in cells
Description: as §2

[5] = 500 uM, read-out: KB05_500 uM_percent_inhibition
[6] = 100 uM, read-out: KB05_100 uM_percent_inhibition
[7] = 100 uM, read-out: KB02_100 uM_percent_inhibition
[8] = 500 uM, read-out: KB02_500 uM_percent_inhibition

KB05_500 uM_percent_inhibition [1]: 63%
KB05_500 uM_percent_inhibition [2]: 63%
KB05_100 uM_percent_inhibition ([3]; KB05 100 uM): 15%
KB05_500 uM_percent_inhibition ([3]; KB05 500 uM): 32%
KB05_500 uM_percent_inhibition [4]: 56%
KB05_500 uM_percent_inhibition (Q5XKL5; 500 uM): 55%
inhibition at 500 µM (Q5XKL5; [5]): 37%
inhibition at 500 µM (Q96P09; read-out: KB05_500 uM_percent_inhibition): 45%
inhibition at 500 µM (Q9H765; [5]): 37%
inhibition at 100 µM (Q9UJX5; [6]): 6%
inhibition at 500 µM (Q9UJX5; [5]): 20%
inhibition at 100 µM (Q9UM13; [6]): 18%
inhibition at 500 µM (Q9UM13; [5]): 62%
Compound: C=CC(=O)N(c1ccccc1)c1ccc(Br)cc1 [KB05]

Compound: COc1ccc2c(c1)CCCN2C(=O)CCl [KB02]
KB02_500 uM_percent_inhibition [1]: 55%
KB02_500 uM_percent_inhibition [2]: 55%
KB02_100 uM_percent_inhibition ([3]; KB02 100 uM): 12%
KB02_500 uM_percent_inhibition [4]: 11%
inhibition at 100 µM (Q5XKL5; [7]): 27%
inhibition at 500 µM (Q96P09; read-out: KB02_500 uM_percent_inhibition): 38%
inhibition at 100 µM (Q9H765; [7]): 19%
inhibition at 500 µM (Q9H765; [8]): 54%
inhibition at 500 µM (Q9UJX5; [8]): 7%
inhibition at 100 µM (Q9UM13; [7]): 1%
inhibition at 500 µM (Q9UM13; [8]): 53%

Compound: O=C(CCl)Nc1cc(C(F)(F)F)cc(C(F)(F)F)c1 [KBO3]
KB03_500 uM_percent_inhibition [1]: 41%
KB03_500 uM_percent_inhibition [2]: 41%
KB03_100 uM_percent_inhibition ([3]; KB03 100 uM): 19%
KB03_500 uM_percent_inhibition [4]: 24%
KB03_500 uM_percent_inhibition (Q5XKL5; 500 uM): 18%
KB03_500 uM_percent_inhibition (Q96P09; 500 uM): 21%
KB03_500 uM_percent_inhibition (Q9H765; 500 uM): 40%
KB03_500 uM_percent_inhibition (Q9UJX5; 500 uM): 29%
KB03_100 uM_percent_inhibition (Q9UM13; 100 uM): 11%
KB03_500 uM_percent_inhibition (Q9UM13; 500 uM): 37%
